Measured values reported in patent publication US6376670B1, “Quinoline-indole antimicrobial agents, uses and compositions related thereto” (Sepracor Inc., priority 1997, dated 2002).
Where two headings read alike, the source gives them in different places. One block for each compound: values may come before it.

Columns and labels:
[1] = Acute in vivo toxicity in mice, intraperitoneal injection; conditions: in 10% w/v hydroxypropyl-β-cyclodextrin in 0.9% w/v saline, 5 mice
Experimental: Solutions of compounds in 10% w/v hydroxypropyl-β-cyclodextrin in 0.9% w/v saline were prepared. Doses of 40 mg/kg or 120 mg/kg of each compound were administered to mice (5 mice/compound/dose) via intraperitoneal injections. The mice […] for seven days.

Streptococcus pneumoniae = assay: Determination of MIC values (BHI broth, 96 well microtiter plate); format: cell-based; conditions: Streptococcus pneumoniae, read-out: MIC S. pneu
Procedure, shortened: (§1)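 MIC was read as the lowest drug concentration without observable growth after roughly 16 h at 37 °C under about 7–10% CO2. Wells held BHI broth with compound at final 25–0.39 μg/mL (1:100 from DMSO dilutions). Each well was inoculated at 10^5–10^6 cells/mL.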

[2] = system: methicillin-resistant Staphylococcus aureus (MRSA); assay: as above; format: cell-based; conditions: Staphylococcus aureus, MRSA, read-out: MIC MRSA
Procedure, shortened: as §1

[3] = system: vancomycin-resistant Enterococcus spp. (VRE); assay: as above; format: cell-based; conditions: Enterococcus, VRE, read-out: MIC VREF
Procedure, shortened: as §1

[4] = S. pneu, BHI broth, overnight 37° C.
[5] = VREF, BHI broth, overnight 37° C.
[6] = BHI broth, 37° C., about 16 hours
[7] = 16 h, BHI broth, 37° C., about 16 hours
[8] = BHI broth, 37° C., overnight (about 16 hours)
[9] = 16 h, BHI broth, 37° C., overnight (about 16 hours)

SMILES: Cn1cc(-c2cc(C(=O)NCCN)c3cc(C#CCN4CCCCC4)ccc3n2)c2cc(Br)ccc21 [Example 379]
- Mice Surviving on Day 7 ([1]; 40 mg/kg intraperitoneal): 40%
- Mice Surviving on Day 7 ([1]; 120 mg/kg intraperitoneal): 0%

- MIC (Streptococcus pneumoniae; [4]): < 7 µg/mL
- MIC ([2]; BHI broth, overnight 37° C.): < 7 µg/mL
- MIC [3, 5]: < 7 µg/mL
SMILES: NCCNC(=O)c1cc(-c2c[nH]c3ccc(Br)cc23)nc2cc(Cl)cc(Cl)c12 [Example 295]

- MIC (Streptococcus pneumoniae; [6]): > 25 µg/mL
- MIC [2, 7]: < 7 µg/mL
- MIC [3, 7]: > 25 µg/mL
SMILES: COc1ccc2nc(-c3c[nH]c4ccc(Br)cc34)ccc2c1 [Example 412]

- MIC (Streptococcus pneumoniae; [4]): > 25 µg/mL
- MIC ([2]; BHI broth, overnight 37° C.): > 25 µg/mL
- MIC [3, 5]: > 25 µg/mL
SMILES: Cn1cc(-c2cc(C(=O)NCc3cccc(CN)c3)c3cc(Cl)ccc3n2)c2cc(Br)ccc21 [Example 366]

- MIC (Streptococcus pneumoniae; [4]): < 7 µg/mL
- MIC ([2]; BHI broth, overnight 37° C.): < 7 µg/mL
- MIC [3, 5]: < 7 µg/mL
SMILES: NCc1cccc(CNC(=O)c2cc(-c3c[nH]c4ccc(Br)cc34)nc3cc(I)ccc23)c1 [Example 252]

- MIC (Streptococcus pneumoniae; [8]): < 7 µg/mL
- MIC [2, 9]: < 7 µg/mL
- MIC [3, 9]: < 7 µg/mL
SMILES: Brc1ccc2[nH]cc(-c3ccc4ccccc4n3)c2c1 [Example 165]

- MIC (Streptococcus pneumoniae; [6]): < 7 µg/mL
- MIC [2, 7]: < 7 µg/mL
- MIC [3, 7]: < 7 µg/mL
SMILES: OCc1cc(-c2c[nH]c3ccc(Br)cc23)nc2cc(Cl)c(C#CCN3CCCCC3)cc12 [Example 518]

- MIC (Streptococcus pneumoniae; [4]): < 7 µg/mL
- MIC ([2]; BHI broth, overnight 37° C.): < 25 µg/mL
- MIC [3, 5]: > 25 µg/mL
SMILES: NCc1ccc(CNC(=O)c2cc(-c3c[nH]c4ccc(Br)cc34)nc3cc(Cl)c(C#CCNCCc4ccc(Cl)cc4)cc23)cc1 [Example 274]

- MIC (Streptococcus pneumoniae; [4]): > 25 µg/mL
- MIC ([2]; BHI broth, overnight 37° C.): > 25 µg/mL
- MIC [3, 5]: > 25 µg/mL
SMILES: COC(=O)c1cc(-c2cn(C)c3ccc(Br)cc23)nc2cc(F)ccc12 [Example 309]

- MIC (Streptococcus pneumoniae; [8]): < 7 µg/mL
- MIC [2, 9]: < 7 µg/mL
- MIC [3, 9]: < 7 µg/mL
SMILES: NCc1cccc(CNC(=O)c2cc(-c3c[nH]c4ccc(Br)cc34)nc3ccc(Cl)cc23)c1 [Example 134]

- MIC (Streptococcus pneumoniae; [6]): < 7 µg/mL
- MIC [2, 7]: < 7 µg/mL
- MIC [3, 7]: > 25 µg/mL
SMILES: Cc1ccc2nc(-c3c(C)[nH]c4ccc(Cl)cc34)ccc2c1 [Example 437]

- MIC (Streptococcus pneumoniae; [6]): < 7 µg/mL
- MIC [2, 7]: < 7 µg/mL
- MIC [3, 7]: < 7 µg/mL
SMILES: Clc1ccc2c(Cl)cc(-c3c[nH]c4ccc(Cl)cc34)nc2c1 [Example 475]

- MIC (Streptococcus pneumoniae; [4]): > 25 µg/mL
- MIC ([2]; BHI broth, overnight 37° C.): > 25 µg/mL
- MIC [3, 5]: > 25 µg/mL
SMILES: Cn1cc(-c2cc(C(=O)NCc3ccc(CN)cc3)c3cc(C#CCN4CCc5ccccc5C4)ccc3n2)c2cc(Br)ccc21 [Example 394]

- MIC (Streptococcus pneumoniae; [8]): < 7 µg/mL
- MIC [2, 9]: < 7 µg/mL
- MIC [3, 9]: < 7 µg/mL
SMILES: NCc1ccc(COCc2cc(-c3c[nH]c4ccc(Br)cc34)nc3ccc(C(F)(F)F)cc23)cc1 [Example 154]

SMILES: C[Si](C)(C)CCOC(=O)n1cc(-c2nc3ccc(Cl)cc3c3c2CCO3)c2cc(Br)ccc21 [Example 421]
- MIC (Streptococcus pneumoniae; 16 h): > 25 µg/mL
- MIC ([2]; 16 h): > 25 µg/mL
- MIC ([3]; 16 h): > 25 µg/mL

- MIC (Streptococcus pneumoniae; [4]): < 7 µg/mL
- MIC ([2]; BHI broth, overnight 37° C.): < 7 µg/mL
- MIC [3, 5]: < 7 µg/mL
SMILES: Cn1cc(-c2cc(C(=O)NC3CCC(N)CC3)c3cc(I)ccc3n2)c2cc(Br)ccc21 (centres unmarked) [Example 360]

- MIC (Streptococcus pneumoniae; [8]): < 7 µg/mL
- MIC [2, 9]: < 7 µg/mL
- MIC [3, 9]: > 25 µg/mL
SMILES: COc1ccc(NC(=O)c2cc(-c3c[nH]c4ccc(Br)cc34)nc3ccccc23)cc1 [Example 48]

- MIC (Streptococcus pneumoniae; [6]): < 7 µg/mL
- MIC [2, 7]: < 7 µg/mL
- MIC [3, 7]: < 7 µg/mL
SMILES: Clc1ccc2c(Cl)cc(-c3c[nH]c4ccccc34)nc2c1 [Example 482]

- MIC (Streptococcus pneumoniae; [6]): < 7 µg/mL
- MIC [2, 7]: < 7 µg/mL
- MIC [3, 7]: < 7 µg/mL
SMILES: Cc1cc2ccccc2nc1-c1c[nH]c2ccc(Cl)cc12 [Example 531]

- MIC (Streptococcus pneumoniae; [4]): < 7 µg/mL
- MIC ([2]; BHI broth, overnight 37° C.): < 7 µg/mL
- MIC [3, 5]: < 7 µg/mL
SMILES: Cn1cc(-c2cc(C(=O)NCC3CCCC(CN)C3)c3cc(I)ccc3n2)c2cc(Br)ccc21 (centres unmarked) [Example 358]

- MIC (Streptococcus pneumoniae; [4]): < 7 µg/mL
- MIC ([2]; BHI broth, overnight 37° C.): < 7 µg/mL
- MIC [3, 5]: < 7 µg/mL
SMILES: Cn1cc(-c2cc(C(=O)NC3CCC(N)CC3)c3ccc(I)cc3n2)c2cc(Br)ccc21 (centres unmarked) [Example 333]

- MIC (Streptococcus pneumoniae; [4]): < 7 µg/mL
- MIC ([2]; BHI broth, overnight 37° C.): < 7 µg/mL
- MIC [3, 5]: < 25 µg/mL
SMILES: NCCNC(=O)c1cc(-c2c[nH]c3ccc(Br)cc23)nc2c(F)cccc12 [Example 319]

- MIC (Streptococcus pneumoniae; [4]): < 25 µg/mL
- MIC ([2]; BHI broth, overnight 37° C.): < 7 µg/mL
- MIC [3, 5]: < 7 µg/mL
SMILES: NCc1ccc(CNC(=O)c2cc(-c3c[nH]c4ccc(Br)cc34)nc3c(Cl)c(Cl)ccc23)cc1 [Example 275]

- MIC (Streptococcus pneumoniae; [6]): > 25 µg/mL
- MIC [2, 7]: > 25 µg/mL
- MIC [3, 7]: > 25 µg/mL
SMILES: COc1ccc2nc(-c3c(C)[nH]c4ccc(OC)cc34)ccc2c1 [Example 428]

- MIC (Streptococcus pneumoniae; [4]): < 7 µg/mL
- MIC ([2]; BHI broth, overnight 37° C.): < 7 µg/mL
- MIC [3, 5]: < 25 µg/mL
SMILES: Clc1ccc2nc(-c3c[nH]c4cccc(Cl)c34)ccc2c1 [Example 201]
